According to patent US5106870A, “Methods for the use of thromboxane A2 antagonists” (National Research Development Corporation, priority 1990, dated 1992):

How the values were obtained:
[1] = test system: U-46619-induced platelet aggregation; assay: Inhibition of U-46619-induced platelet aggregation in rat platelet rich plasma (in vitro); type: cell-based; conditions: rat PRP
Method: a. Inhibition of U-46619-induced platelet aggregation (rat)
Platelet rich plasma (PRP) was prepared from heparanized whole blood (5 units/ml) drawn from the abdominal aorta of ether anesthetized rats. PRP was prepared by centrifugation (Sorvall RC2B, DuPont, Wilmington, Del.) of the whole blood at 150×g for 10 min. Platelet poor plasma (PPP) was prepared by centrifugation at 1200×g for 20 min. Aliquots of PRP and PPP were used to standardize the aggregometer (Payton, Buffalo, N.Y., model 300B) with the recorder (Riken Denshi 2 channel recorder, Payton, model SP-H5P) for measurement of minimum and maximum light transmittance, respectively.
Platelet aggregation was measured as an increase in light transmittance. PRP (390 μl aliquot +5 μl compound vehicle) was preincubated for 1 min. at 37° C., with stirring at 900 rpm in the aggregometer. The vehicle control response was obtained by adding U-46619 (Cayman Chemical, Ann Arbor, Mich., 1-2 units/cuvette/10 μl) to the aliquot of PRP. Aggregation was monitored until maximum aggregation was achieved (approximately 3 min. following the addition of U-46619). Amount of aggregation was measured by grids on the strip chart.
Compounds were dissolved in either ethanol (ETOH) or Na2 CO3 (0.1M) and preincubated at the desired concentration in PRP for 1 min. at 37° C. with stirring. At the end of the preincubation, U-46619 was added and aggregation measured. Inhibition of aggregation by compound was calculated as percent inhibition of the control aggregation response to U-46619. Dose response curves were generated and IC50 's calculated by linear regression.

[2] = test system: U-46619 induced platelet aggregation; assay: Ex vivo inhibition of U-46619 induced platelet aggregation, intravenous; type: in vivo; conditions: rat
Method: (§1) II. Ex vivo--(rat) Inhibition of U-46619 induced platelet aggregation
Rats were anesthetized with ether and the jugular vein exposed. Compound dissolved in 0.1M Na Carbonate was injected as a bolus into the jugular vein. Blood (5 ml, heparanized) was sampled 30 sec. later from the abdominal aorta. PRP was prepared by quick centrifugation (Eppendorf, model 5415 at 12,000 rpm for 5 sec. PPP was prepared by centrifugation for 2 min. PRP was diluted 1:1 with PPP from similarly treated animals. Aggregation was monitored for 5 min. and inhibition was determined as previously described.

[3] = test system: U-46619 induced platelet aggregation; assay: Ex vivo inhibition of U-46619 induced platelet aggregation, intragastric; type: in vivo; conditions: rat
Method: as §1
Compounds dissolved in Na Carbonate were administered to conscious rats with an I.G. tube. Fifteen minutes post administration (time previously determined to show maximum effect), rats were anesthetized with ether and blood was sampled from the abdominal aorta, PRP was prepared as described in II a.

[4] = test system: human washed platelets; assay: Analysis of partial agonism (shape change/aggregation) in human washed platelets; type: cell-based; conditions: 5 and 10 min incubation
Method: b. Analysis of partial agonism with SC-46985 (human washed platelets)
Sixty ml of blood were drawn into 1/10 volume of CCD (100 mM Na Citrate and 136 mM glucose, pH 6.5 with HCl) and PRP prepared as described above. PRP was placed on ice for 15 min. One half of the volume of CCD was added and recentrifuged. The platelet pellet was gently resuspended in 1/2 the original volume of PRP in a 0° C. modified Tangen-Hepes-BSA buffer (145 mM NaCl, 5 mM KCl, 0.05 mM CaCl2, 0.1 mM MgCl2, 11 mM glucose, 15 mM Hepes, 1 mg/ml bovine serum albumin, pH adjusted to 7.4 with NaOH). The resuspended platelets were incubated undisturbed at 37° C. for 30 min. After incubation a platelet count was determined and adjusted to 3×10^8 cells/ml with the Tangen-Hepes-BSA buffer.
425 μl of the washed human platelet suspension was incubated in the aggregometer in the presence of 16 mM CaCl2 (50 μl) and SC-46985 for 5 and 10 min. […] (In a study similar to (a) above, aliquots of human washed platelets were incubated with various concentrations of SC-46985 and U-46619 to determine dose-related inhibition of aggregation).

Compound: CC(=NNC(=S)Nc1ccccc1)[C@@H]1[C@H]2CC[C@H](C2)[C@H]1C/C=C\CCCC(=O)O (relative stereo) [SC-44161, (±)7-[3α[[(Phenylamino)thioxomethyl]hydrazono]ethyl]1α,4α-bicyclo[2.2.1]hept-2β-yl]-5Z-heptenoic acid]
- more potent in aqueous solution than when dissolved in ethanol ([1]; aqueous (Na Carbonate) vs ethanol): 5-10 fold

Compound: CC(=NNC(=S)Nc1ccccc1)[C@@H]1[C@H]2CC[C@H](C2)[C@H]1C/C=C\CCCC(=O)O [SC-46984, 7-[3α-[1-[[(Phenylamino)thioxomethyl]hydrazono]ethyl]-1R,1α,4α-bicyclo-[2.2.1]hept-2β-yl]-5Z-heptenoic acid]
- more potent than SC-44161 ([1]; in vitro): approximately 100 times
- more potent than SC-44161 (ED50) [2]: approximately 3.5 times
- more potent than SC-44161 (I.G. ED50) [3]: approximately 2.8 times

Compound: CC(=NNC(=S)Nc1ccccc1)[C@H]1[C@@H]2CC[C@@H](C2)[C@@H]1C/C=C\CCCC(=O)O [SC-46985]
- partial agonist activity (shape change or aggregation) [4]: no evidence of shape change or aggregation
- less potent than SC-44161 (ED50) [2]: approximately 1.5 times

Compound: CC(=NNC(=S)Nc1ccccc1)[C@@H]1[C@H]2CC[C@H](C2)[C@H]1C/C=C/CCCC(=O)O [SC-47721, 7-[3α-[1-[[(Phenylamino)thioxomethyl]hydrazono]ethyl]-1R,1α,4α-bicyclo-[2.2.1]hept-2β-yl]-5E-heptenoic acid]
- more potent than SC-44161 ([1]; in vitro): 10-50 times
- potency compared with SC-46984 ([1]; in vitro): less potent than SC-46984
- inhibition of U-46619 induced aggregation ([3]; 1 mg/kg, 15 min post administration): 37.5%
